In ChEMBL document CHEMBL5584237, “Design, synthesis, biological evaluation, and in silico studies of novel pyridopyridine derivatives as anticancer candidates targeting FMS kinase” (Eur J Med Chem, 2024):

Legend:
MDA-MB-231 = test: Antiproliferative activity against human MDA-MB-231 cells assessed as cell growth inhibition; type: functional
[1] = Selectivity index, ratio of IC50 for human HS27 cells to IC50 for human HCT-116 cells
[2] = Selectivity index, ratio of IC50 for human HS27 cells to IC50 for human MOLT-4 cells
[3] = Selectivity index, ratio of IC50 for human WI-38 cells to IC50 for human SR cells; type: toxicity; conditions: WI-38 cells and SR cells, read-out: Ratio IC50
LOX IMVI = test: Antiproliferative activity against human LOX IMVI cells assessed as cell growth inhibition; type: functional
[4] = Selectivity index, ratio of IC50 for human WI-38 cells to IC50 for human SF-539 cells
[5] = Selectivity index, ratio of IC50 for human HS27 cells to IC50 for human K562 cells
Hep 3B2 = test: cells; conditions: Homo sapiens, Hep3B, 48 h

CCN1CCN(c2ccc(NC(=O)Nc3ccc(-c4cc(C(=O)NC(C)C)c5ncccc5n4)cc3)cc2C(F)(F)F)CC1
GI50 (MDA-MB-231): 610 nM
TGI (MDA-MB-231): 1180 nM
Ratio IC50 [1]: 9.77
Ratio IC50 [2]: 8
selectivity ratio [3]: 15.4
GI50 (LOX IMVI): 560 nM
TGI (LOX IMVI): 1050 nM
Ratio IC50 [4]: 8.71
Ratio IC50 [5]: 8
IC50 (Hep 3B2): 1690 nM
